Earlier results in patent publication US8039023B1, “Composition for relief of menstrual cramps and muscle cramps” (priority 2009, dated 2011).

Test system: pain and muscle cramping symptoms
Conditions: prior art, various brands, typical

| Compound | time after ingestion to reduced discomfort from pain and muscle cramping symptoms |
| --- | --- |
| CC(=O)Nc1ccc(O)cc1 [acetaminophen] | twenty to forty |
| CC(=O)Oc1ccccc1C(=O)O [aspirin] | twenty to forty |
| CC(C)Cc1ccc(C(C)C(=O)O)cc1 (stereo not drawn) [ibuprofen] | twenty to forty |
